This note sets out measurements from patent publication US20260092071A1, “COMPOUNDS AND COMPOSITIONS AS SMARCA2/4 DEGRADERS AND USES THEREOF” (REGENTS OF THE UNIVERSITY OF MICHIGAN, priority 2022, published 2026).

One test has as its target SMARCA2 (Homo sapiens, UniProt P51531). Nature of the test: HiBiT assay for protein degradation, Hela SMARCA2-HiBiT cells (A series).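 As to SMARC A2 Hela HiBit Dmax (%): 24 h compound treatment.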 Format: cell-based. Also noted: Hela cells were genetically modified via CRISPR/Cas9 to fuse HiBiT to the carboxy terminus of SMARCA2; host or cells: HeLa (CRISPR/Cas9 HiBiT knock-in). As to conditions: Hela SMARCA2-HiBiT cells, 24 hours treatment; for DC50: read-out: SMARC A2 Hela HiBit DC50; for Dmax: read-out: SMARC A2 Hela HiBit Dmax (%). The procedure, abridged:
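SMARCA2 degradation was measured in HeLa cells whose endogenous SMARCA2 carries a carboxy-terminal HiBiT tag introduced by CRISPR/Cas9 (Promega CS302365). Cells were maintained in DMEM with FBS and penicillin-streptomycin. SMARCA2 levels were read at the end of the experiment by Nano-Glo® HiBiT lytic luminescence (Promega N3050) and analyzed in GraphPad Prism.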
A general note: The HiBiT peptide binds its large partner to form an active luciferase.

The target of a further test is SMARCA4 (Homo sapiens, UniProt P51532). Nature of the test: HiBiT assay for protein degradation, Hela SMARCA4-HiBiT cells (A series). The note with it: Hela SMARCA4-HiBiT cells, 24 hours treatment; for DC50: read-out: SMARC A4 Hela HiBit DC50; for Dmax: read-out: SMARC A4 Hela HiBit Dmax. Format: cell-based. Also on record: fuse HiBiT to the carboxy terminus of SMARCA2 (Promega CS302365) or SMARCA4 (Promega CS3023225); host or cells: HeLa (CRISPR/Cas9 HiBiT knock-in). The procedure, abridged: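 SMARCA4 degradation was measured in HeLa cells in which HiBiT had been knocked into the SMARCA4 carboxy terminus via CRISPR/Cas9 (Promega CS3023225). Cells were maintained in DMEM with FBS and penicillin-streptomycin. At the end of treatment, SMARCA4 levels were read by lytic HiBiT luminescence (Nano-Glo®, Promega N3050), and data were analyzed with GraphPad Prism.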
SMARCA4, sequence (P51532 whole entry): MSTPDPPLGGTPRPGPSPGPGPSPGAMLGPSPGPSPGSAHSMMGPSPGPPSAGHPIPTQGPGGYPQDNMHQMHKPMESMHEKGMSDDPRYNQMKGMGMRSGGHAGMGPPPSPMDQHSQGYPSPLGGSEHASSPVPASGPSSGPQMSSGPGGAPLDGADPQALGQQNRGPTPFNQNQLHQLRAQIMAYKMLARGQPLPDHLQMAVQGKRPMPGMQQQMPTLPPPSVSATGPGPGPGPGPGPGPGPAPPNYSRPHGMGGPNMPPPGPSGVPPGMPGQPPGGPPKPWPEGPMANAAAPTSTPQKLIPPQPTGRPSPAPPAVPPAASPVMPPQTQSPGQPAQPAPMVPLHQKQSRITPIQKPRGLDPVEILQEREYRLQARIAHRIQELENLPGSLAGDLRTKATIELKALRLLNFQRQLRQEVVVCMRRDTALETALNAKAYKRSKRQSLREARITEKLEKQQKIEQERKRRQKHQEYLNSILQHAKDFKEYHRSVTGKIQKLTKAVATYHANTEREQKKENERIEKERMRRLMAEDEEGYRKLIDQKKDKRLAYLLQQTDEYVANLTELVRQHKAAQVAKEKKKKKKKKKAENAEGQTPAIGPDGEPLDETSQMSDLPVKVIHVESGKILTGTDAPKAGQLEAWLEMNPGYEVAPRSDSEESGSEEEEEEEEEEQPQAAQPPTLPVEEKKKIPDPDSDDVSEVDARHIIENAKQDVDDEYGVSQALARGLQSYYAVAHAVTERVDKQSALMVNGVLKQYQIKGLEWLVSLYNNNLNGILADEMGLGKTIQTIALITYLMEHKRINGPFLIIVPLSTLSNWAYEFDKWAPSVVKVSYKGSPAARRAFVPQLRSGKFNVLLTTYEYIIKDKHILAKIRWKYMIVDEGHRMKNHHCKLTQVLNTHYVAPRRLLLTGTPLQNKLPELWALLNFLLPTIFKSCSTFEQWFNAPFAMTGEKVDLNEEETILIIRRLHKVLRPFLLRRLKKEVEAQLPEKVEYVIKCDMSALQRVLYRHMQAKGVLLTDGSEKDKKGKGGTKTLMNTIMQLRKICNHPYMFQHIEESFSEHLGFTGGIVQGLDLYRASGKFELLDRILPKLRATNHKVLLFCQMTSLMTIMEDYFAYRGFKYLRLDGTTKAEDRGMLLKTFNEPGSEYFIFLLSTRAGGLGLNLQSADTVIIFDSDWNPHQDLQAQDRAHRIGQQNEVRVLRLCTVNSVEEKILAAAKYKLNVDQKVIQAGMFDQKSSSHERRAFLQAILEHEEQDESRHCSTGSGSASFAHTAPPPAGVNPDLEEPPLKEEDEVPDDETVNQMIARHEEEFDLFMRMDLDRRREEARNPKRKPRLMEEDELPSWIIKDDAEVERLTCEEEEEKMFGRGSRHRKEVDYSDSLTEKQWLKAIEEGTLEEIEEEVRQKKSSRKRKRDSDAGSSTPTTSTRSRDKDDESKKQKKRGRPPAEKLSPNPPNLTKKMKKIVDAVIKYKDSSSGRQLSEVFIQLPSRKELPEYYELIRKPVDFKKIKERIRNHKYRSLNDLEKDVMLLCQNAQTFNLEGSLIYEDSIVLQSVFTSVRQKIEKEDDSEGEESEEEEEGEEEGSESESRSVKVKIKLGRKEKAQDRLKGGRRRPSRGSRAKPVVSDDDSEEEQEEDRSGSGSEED

SMARCA2, sequence (P51531 whole entry): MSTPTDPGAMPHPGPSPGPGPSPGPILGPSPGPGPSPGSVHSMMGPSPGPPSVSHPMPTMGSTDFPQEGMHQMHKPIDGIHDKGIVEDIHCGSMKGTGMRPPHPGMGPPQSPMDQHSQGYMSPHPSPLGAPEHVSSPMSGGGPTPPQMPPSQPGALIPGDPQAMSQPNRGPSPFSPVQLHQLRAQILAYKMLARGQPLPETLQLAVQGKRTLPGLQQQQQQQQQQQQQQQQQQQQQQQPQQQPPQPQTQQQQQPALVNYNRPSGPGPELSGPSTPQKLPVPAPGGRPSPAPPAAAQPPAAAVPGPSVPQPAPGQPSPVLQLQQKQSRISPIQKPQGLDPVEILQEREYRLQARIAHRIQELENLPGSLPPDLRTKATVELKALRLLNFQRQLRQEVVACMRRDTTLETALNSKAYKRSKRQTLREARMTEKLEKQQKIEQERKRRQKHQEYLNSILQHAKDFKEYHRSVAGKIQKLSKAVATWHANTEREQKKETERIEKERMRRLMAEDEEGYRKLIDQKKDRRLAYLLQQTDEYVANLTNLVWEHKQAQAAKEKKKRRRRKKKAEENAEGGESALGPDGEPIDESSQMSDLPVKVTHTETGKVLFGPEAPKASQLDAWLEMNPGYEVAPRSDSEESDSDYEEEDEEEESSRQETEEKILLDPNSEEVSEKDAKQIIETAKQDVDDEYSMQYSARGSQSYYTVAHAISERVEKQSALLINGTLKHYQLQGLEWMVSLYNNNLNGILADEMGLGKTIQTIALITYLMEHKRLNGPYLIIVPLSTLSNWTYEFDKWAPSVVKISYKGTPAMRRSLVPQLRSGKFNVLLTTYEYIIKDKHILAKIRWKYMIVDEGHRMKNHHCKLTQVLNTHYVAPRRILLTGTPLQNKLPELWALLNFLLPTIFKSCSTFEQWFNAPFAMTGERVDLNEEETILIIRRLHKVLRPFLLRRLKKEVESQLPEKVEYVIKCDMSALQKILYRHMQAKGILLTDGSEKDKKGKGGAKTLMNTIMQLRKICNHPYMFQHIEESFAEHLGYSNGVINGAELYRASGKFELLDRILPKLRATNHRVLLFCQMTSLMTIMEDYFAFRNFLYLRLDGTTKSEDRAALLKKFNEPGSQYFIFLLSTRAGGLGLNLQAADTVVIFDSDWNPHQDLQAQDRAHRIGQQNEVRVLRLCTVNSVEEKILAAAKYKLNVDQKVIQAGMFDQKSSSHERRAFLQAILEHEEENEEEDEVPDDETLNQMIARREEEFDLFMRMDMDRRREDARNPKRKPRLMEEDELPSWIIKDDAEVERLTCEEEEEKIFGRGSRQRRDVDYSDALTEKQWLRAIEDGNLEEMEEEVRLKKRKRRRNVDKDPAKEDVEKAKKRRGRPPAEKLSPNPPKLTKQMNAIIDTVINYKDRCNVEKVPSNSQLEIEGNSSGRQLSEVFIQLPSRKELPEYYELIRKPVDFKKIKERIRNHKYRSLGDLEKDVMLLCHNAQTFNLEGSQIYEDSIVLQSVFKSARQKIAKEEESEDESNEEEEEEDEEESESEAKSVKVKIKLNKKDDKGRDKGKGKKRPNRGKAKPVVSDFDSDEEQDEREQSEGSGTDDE

For `COCCOCCOCCOCCOC[C@H](NC(=O)[C@@H]1C[C@@H](O)CN1C(=O)[C@@H](n1cc([C@H]2CC[C@H](CN3CCC(c4ccc5c(c4)-n4c(nc(=O)c6c(Cl)cccc64)C5(C)C)CC3)CC2)nn1)C(C)(C)C)c1ccc(-c2scnc2C)cc1` [Compound A151, (2S,4R)-1-((S)-2-(4-((1r,4S)-4-((4-(4-chloro-7,7-dimethyl-5-oxo-5,7-dihydroindolo[1,2-a]quinazolin-10-yl)piperidin-1-yl)methyl)cyclohexyl)-1H-1,2,3-triazol-1-yl)-3,3-dimethylbutanoyl)-4-hydroxy-N—((R)-16-(4-(4-methylthiazol-5-yl)phenyl)-2,5,8,11,14-pentaoxahexadecan-16-yl)pyrrolidine-2-carboxamide], the DC50 (commonly the concentration giving 50% degradation) on SMARCA2 was < 10 nM; on SMARCA4 it was > 1000 nM. The Dmax (usually the greatest extent of degradation seen) on SMARCA2 is > 90%; on SMARCA4, < 50%.
The corresponding values for `COC(=O)COC[C@H](NC(=O)[C@@H]1C[C@@H](O)CN1C(=O)[C@@H](n1cc([C@H]2CC[C@H](CN3CCC(c4ccc5c(c4)-n4c(nc(=O)c6c(Cl)cccc64)C54CCCCC4)CC3)CC2)nn1)C(C)(C)C)c1ccc(-c2scnc2C)cc1` [Compound A152, methyl 2-((R)-2-((2S,4R)-1-((S)-2-(4-((1r,4S)-4-((4-(4′-chloro-5′-oxo-5′H-spiro[cyclohexane-1,7′-indolo[1,2-a]quinazolin]-10′-yl)piperidin-1-yl)methyl)cyclohexyl)-1H-1,2,3-triazol-1-yl)-3,3-dimethylbutanoyl)-4-hydroxypyrrolidine-2-carboxamido)-2-(4-(4-methylthiazol-5-yl)phenyl)ethoxy)acetate] are < 10 nM, > 1000 nM, > 90% and 50 to 69%.
Regarding `COC(=O)C1CCN(C[C@H](NC(=O)[C@@H]2C[C@@H](O)CN2C(=O)[C@@H](n2cc([C@H]3CC[C@H](CN4CCC(c5ccc6c(c5)-n5c(nc(=O)c7c(Cl)cccc75)C65CCCCC5)CC4)CC3)nn2)C(C)(C)C)c2ccc(-c3scnc3C)cc2)CC1` [Compound A153, methyl 1-((R)-2-((2S,4R)-1-((S)-2-(4-((1r,4S)-4-((4-(4′-chloro-5′-oxo-5′H-spiro[cyclohexane-1,7′-indolo[1,2-a]quinazolin]-10′-yl)piperidin-1-yl)methyl)cyclohexyl)-1H-1,2,3-triazol-1-yl)-3,3-dimethylbutanoyl)-4-hydroxypyrrolidine-2-carboxamido)-2-(4-(4-methylthiazol-5-yl)phenyl)ethyl)piperidine-4-carboxylate], on SMARCA2, the DC50 was < 10 nM and the Dmax was > 90%. At SMARCA4, the 50% degradation concentration (DC50) is > 1000 nM and the Dmax lay in the range of 50 to 69%.
The matching figures for `COC(=O)C1CN(C[C@H](NC(=O)[C@@H]2C[C@@H](O)CN2C(=O)[C@@H](n2cc([C@H]3CC[C@H](CN4CCC(c5ccc6c(c5)-n5c(nc(=O)c7c(Cl)cccc75)C65CCCCC5)CC4)CC3)nn2)C(C)(C)C)c2ccc(-c3scnc3C)cc2)C1` [Compound A154, methyl 1-((R)-2-((2S,4R)-1-((S)-2-(4-((1r,4S)-4-((4-(4′-chloro-5′-oxo-5′H-spiro[cyclohexane-1,7′-indolo[1,2-a]quinazolin]-10′-yl)piperidin-1-yl)methyl)cyclohexyl)-1H-1,2,3-triazol-1-yl)-3,3-dimethylbutanoyl)-4-hydroxypyrrolidine-2-carboxamido)-2-(4-(4-methylthiazol-5-yl)phenyl)ethyl) azetidine-3-carboxylate]: < 10 nM, > 90%, > 1000 nM and < 50%.
The corresponding values for `Cc1ncsc1-c1ccc([C@H](COCC(=O)O)NC(=O)[C@@H]2C[C@@H](O)CN2C(=O)[C@@H](n2cc([C@H]3CC[C@H](CN4CCC(c5ccc6c(c5)-n5c(nc(=O)c7c(Cl)cccc75)C65CCCCC5)CC4)CC3)nn2)C(C)(C)C)cc1` [Compound A155, 2-((R)-2-((2S,4R)-1-((S)-2-(4-((1r,4S)-4-((4-(4′-chloro-5′-oxo-5′H-spiro[cyclohexane-1,7′-indolo[1,2-a]quinazolin]-10′-yl)piperidin-1-yl)methyl)cyclohexyl)-1H-1,2,3-triazol-1-yl)-3,3-dimethylbutanoyl)-4-hydroxypyrrolidine-2-carboxamido)-2-(4-(4-methylthiazol-5-yl)phenyl)ethoxy) acetic acid] are 100 to 1000 nM, 70 to 90%, > 1000 nM and < 50%.
The corresponding values for `Cc1ncsc1-c1ccc([C@H](CN2CCC(C(=O)O)CC2)NC(=O)[C@@H]2C[C@@H](O)CN2C(=O)[C@@H](n2cc([C@H]3CC[C@H](CN4CCC(c5ccc6c(c5)-n5c(nc(=O)c7c(Cl)cccc75)C65CCCCC5)CC4)CC3)nn2)C(C)(C)C)cc1` [Compound A156, 1-((R)-2-((2S,4R)-1-((S)-2-(4-((1r,4S)-4-((4-(4′-chloro-5′-oxo-5′H-spiro[cyclohexane-1,7′-indolo[1,2-a]quinazolin]-10′-yl)piperidin-1-yl)methyl)cyclohexyl)-1H-1,2,3-triazol-1-yl)-3,3-dimethylbutanoyl)-4-hydroxypyrrolidine-2-carboxamido)-2-(4-(4-methylthiazol-5-yl)phenyl)ethyl)piperidine-4-carboxylic acid] are 100 to 1000 nM, 70 to 90%, > 1000 nM and < 50%.
For `Cc1ncsc1-c1ccc([C@H](CN2CC(C(=O)O)C2)NC(=O)[C@@H]2C[C@@H](O)CN2C(=O)[C@@H](n2cc([C@H]3CC[C@H](CN4CCC(c5ccc6c(c5)-n5c(nc(=O)c7c(Cl)cccc75)C65CCCCC5)CC4)CC3)nn2)C(C)(C)C)cc1` [Compound A157, 1-((R)-2-((2S,4R)-1-((S)-2-(4-((1r,4S)-4-((4-(4′-chloro-5′-oxo-5′H-spiro[cyclohexane-1,7′-indolo[1,2-a]quinazolin]-10′-yl)piperidin-1-yl)methyl)cyclohexyl)-1H-1,2,3-triazol-1-yl)-3,3-dimethylbutanoyl)-4-hydroxypyrrolidine-2-carboxamido)-2-(4-(4-methylthiazol-5-yl)phenyl)ethyl) azetidine-3-carboxylic acid], at SMARCA2, the DC50 fell in the range of 100 to 1000 nM and the Dmax fell in the range of 70 to 90%. Further, at SMARCA4, the DC50 was > 1000 nM and the Dmax is < 50%.
For `Cc1ncsc1-c1ccc([C@H](CN2CCOCC2)NC(=O)[C@@H]2C[C@@H](O)CN2C(=O)[C@@H](n2cc([C@H]3CC[C@H](CN4CCC(c5ccc6c(c5)-n5c(nc(=O)c7c(Cl)cccc75)C65CCCCC5)CC4)CC3)nn2)C(C)(C)O)cc1` [Compound A158, (2S,4R)-1-((S)-2-(4-((1r,4S)-4-((4-(4′-chloro-5′-oxo-5′H-spiro[cyclohexane-1,7′-indolo[1,2-a]quinazolin]-10′-yl)piperidin-1-yl)methyl)cyclohexyl)-1H-1,2,3-triazol-1-yl)-3-hydroxy-3-methylbutanoyl)-4-hydroxy-N-((R)-1-(4-(4-methylthiazol-5-yl)phenyl)-2-morpholinoethyl)pyrrolidine-2-carboxamide], the DC50 at SMARCA2 was < 10 nM; on SMARCA4 it was > 1000 nM. Further, the values for the Dmax at SMARCA2 and at SMARCA4 were > 90% and 50 to 69%, respectively.
